Where two headings read alike, the source gives them in different places.
Experiments:
DLD1-WRN-KO cells = assay: Proliferation assay DLD1-WRN-KO (CellTiterGlo, off-target effects); type: cell-based; conditions: 96 hours, geometric mean of at least 2
Summary of the method: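 DLD1 cells with CRISPR knockout of WRN were exposed overnight-seeded to eight 3-fold compound dilutions (0.1% DMSO) for 96 h at 37 °C. Viability was read as ATP by CellTiterGlo luminescence against a day-0 plate, giving GI50 and residual viability at top concentration.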

[1] = molecular target: T1, WRN helicase (aa N517-P1238) (Homo sapiens, UniProt Q14191); assay: WRN ATPase assay (DNA dependent ATP hydrolysis, ADP-Glo); type: biochemical; conditions: 3 hours pre-incubation, 300 micromolar ATP, FLAP26 DNA; geometric mean of at least 2
T1 construct: The core helicase motif of the WRN protein (aa N517-P1238) was produced for this assay; His (N); ZZ (N); 3C protease cleavage site (N); made in house; host or cells: Sf21 insect cells (baculovirus; virus and BIICs made in SF9)
Summary of the method: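 DNA-dependent ATP hydrolysis detected as ADP by ADP-Glo luminescence, using 300 μM ATP, 0.2 nM FLAP26 substrate and 10 nM WRN aa N517-P1238 (Tris pH 7.5 buffer, 2 mM MgCl2, 50 mM NaCl). IC50s fitted from normalized duplicate half-log dilutions; reported as geometric means of at least 2 replicates.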

SW48 cells = assay: Proliferation assay SW48 (CellTiterGlo); type: cell-based; conditions: SW48 colon carcinoma cells, 96 hours, CellTiterGlo, geometric mean of at least 2, read-out: Proliferation Assay SW48 GI50
Summary of the method: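 Read-out is CellTiterGlo luminescence after 96 hours of compound exposure, with % growth calculated against day-0 and vehicle-treated ATP levels. SW48 seeded at 2,000 cells/well, dosed next day with eight 3-fold serial dilutions, 0.1% DMSO. GI50 reported as geometric mean, at least 2 replicates.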

T1 sequence (Q14191 517-1238): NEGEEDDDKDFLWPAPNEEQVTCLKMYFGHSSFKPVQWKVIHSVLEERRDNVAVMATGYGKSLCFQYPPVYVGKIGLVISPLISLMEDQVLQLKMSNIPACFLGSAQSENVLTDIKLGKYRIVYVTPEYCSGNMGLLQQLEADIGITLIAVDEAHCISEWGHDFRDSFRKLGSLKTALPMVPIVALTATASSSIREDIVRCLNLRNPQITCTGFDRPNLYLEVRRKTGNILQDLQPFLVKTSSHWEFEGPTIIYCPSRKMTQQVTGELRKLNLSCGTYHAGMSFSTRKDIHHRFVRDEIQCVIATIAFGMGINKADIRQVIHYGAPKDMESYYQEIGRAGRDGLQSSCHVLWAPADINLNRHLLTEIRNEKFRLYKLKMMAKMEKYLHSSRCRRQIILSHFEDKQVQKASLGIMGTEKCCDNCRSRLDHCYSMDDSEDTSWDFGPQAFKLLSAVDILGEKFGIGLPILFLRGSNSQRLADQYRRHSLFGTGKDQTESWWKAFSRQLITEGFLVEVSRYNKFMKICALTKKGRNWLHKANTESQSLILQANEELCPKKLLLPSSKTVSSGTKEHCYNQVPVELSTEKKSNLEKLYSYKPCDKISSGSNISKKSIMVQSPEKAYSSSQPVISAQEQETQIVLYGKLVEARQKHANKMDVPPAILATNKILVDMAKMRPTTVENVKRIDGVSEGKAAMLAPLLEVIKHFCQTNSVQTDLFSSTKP

| GI50 (DLD1-WRN-KO cells) | IC50 [1] | GI50 (SW48 cells; Homo sapiens, SW48, 96 h) | GI50 (SW48 cells) | SMILES |
| --- | --- | --- | --- | --- |
| > 10000 nM | 80 nM | 1000 nM |  | CCc1c(N2CCN(C(=O)c3ccn4ccnc4c3O)CC2)c(=O)n2nc(C3=CCOCC3)nc2n1CC(=O)Nc1ccc(C(F)(F)F)cc1C [Example 43, 2-(2-(3,6-dihydro-2H-pyran-4-yl)-5-ethyl-6-(4-(8-hydroxyimidazo[1,2-a]pyridine-7-carbonyl)piperazin-1-yl)-7-oxo-[1,2,4]triazolo[1,5-a]pyrimidin-4(7H)-yl)-N-(2-methyl-4-(trifluoromethyl)phenyl)acetamide] |
| > 10000 nM | 80 nM | 900 nM |  | CCc1c(N2CCN(C(=O)c3c(O)ccc4nccn34)CC2)c(=O)n2nc(C3=CCOCC3)nc2n1CC(=O)Nc1ccc(C(F)(F)F)cc1C [Example 44, 2-(2-(3,6-dihydro-2H-pyran-4-yl)-5-ethyl-6-(4-(6-hydroxyimidazo[1,2-a]pyridine-5-carbonyl)piperazin-1-yl)-7-oxo-[1,2,4]triazolo[1,5-a]pyrimidin-4(7H)-yl)-N-(2-methyl-4-(trifluoromethyl)phenyl)acetamide] |
| > 10000 nM | 90 nM | 300 nM |  | CCc1c(N2CCN(C(=O)c3ccc(Cl)c(F)c3O)CC2)c(=O)n2nc(C3=CCOCC3)nc2n1CC(=O)Nc1ccc(C(F)(F)F)cc1C [Example 45, 2-(6-(4-(4-chloro-3-fluoro-2-hydroxybenzoyl)piperazin-1-yl)-2-(3,6-dihydro-2H-pyran-4-yl)-5-ethyl-7-oxo-[1,2,4]triazolo[1,5-a]pyrimidin-4(7H)-yl)-N-(2-methyl-4-(trifluoromethyl)phenyl)acetamide] |
| > 10000 nM | 90 nM | 200 nM |  | CCc1c(N2CCN(C(=O)c3c(O)ccc4nccn34)CC2)c(=O)n2nc(C3=CCOCC3)nc2n1CC(=O)Nc1ccc(C(F)(F)F)cc1Cl [Example 46, N-(2-chloro-4-(trifluoromethyl)phenyl)-2-(2-(3,6-dihydro-2H-pyran-4-yl)-5-ethyl-6-(4-(6-hydroxyimidazo[1,2-a]pyridine-5-carbonyl)piperazin-1-yl)-7-oxo-[1,2,4]triazolo[1,5-a]pyrimidin-4(7H)-yl)acetamide] |
| > 10000 nM | 90 nM | 900 nM |  | CCc1c(N2CCN(C(=O)c3ccnc(C)c3O)CC2)c(=O)n2nc(C3=CCOCC3)nc2n1CC(=O)Nc1ccc(C(F)(F)F)cc1C [Example 47, 2-(2-(3,6-dihydro-2H-pyran-4-yl)-5-ethyl-6-(4-(3-hydroxy-2-methylisonicotinoyl)piperazin-1-yl)-7-oxo-[1,2,4]triazolo[1,5-a]pyrimidin-4(7H)-yl)-N-(2-methyl-4-(trifluoromethyl)phenyl)acetamide] |
| > 10000 nM | 100 nM | > 10000 nM |  | Cc1c(N2CCN(C(=O)c3cccnc3O)CC2)c(=O)n2nc(C3=CCOCC3)nc2n1CC(=O)Nc1ccc(C(F)(F)F)cc1 [Example 48, 2-(2-(3,6-dihydro-2H-pyran-4-yl)-6-(4-(2-hydroxynicotinoyl)piperazin-1-yl)-5-methyl-7-oxo-[1,2,4]triazolo[1,5-a]pyrimidin-4(7H)-yl)-N-(4-(trifluoromethyl)phenyl)acetamide] |
| > 10000 nM | 200 nM | 500 nM |  | CCc1c(N2CCN(C(=O)c3ccnc(C)c3O)CC2)c(=O)n2nc(C3=CCOCC3)nc2n1CC(=O)Nc1ccc(C(F)(F)F)cc1Cl [Example 49, N-(2-chloro-4-(trifluoromethyl)phenyl)-2-(2-(3,6-dihydro-2H-pyran-4-yl)-5-ethyl-6-(4-(3-hydroxy-2-methylisonicotinoyl)piperazin-1-yl)-7-oxo-[1,2,4]triazolo[1,5-a]pyrimidin-4(7H)-yl)acetamide] |
| > 10000 nM | 300 nM | 1000 nM |  | CCc1c(N2CCN(C(=O)c3nccc4cccc(O)c34)CC2)c(=O)n2nc(C3=CCOCC3)nc2n1CC(=O)Nc1ccc(C(F)(F)F)cc1C [Example 50, 2-(2-(3,6-dihydro-2H-pyran-4-yl)-5-ethyl-6-(4-(8-hydroxyisoquinoline-1-carbonyl)piperazin-1-yl)-7-oxo-[1,2,4]triazolo[1,5-a]pyrimidin-4(7H)-yl)-N-(2-methyl-4-(trifluoromethyl)phenyl)acetamide] |
| 7000 nM | 600 nM | 2000 nM |  | CCc1c(N2CCN(C(=O)c3ncc(F)c4cc[nH]c34)CC2)c(=O)n2nc(C3=CCOCC3)nc2n1CC(=O)Nc1ccc(C(F)(F)F)cc1C [Example 51, 2-(2-(3,6-dihydro-2H-pyran-4-yl)-5-ethyl-6-(4-(4-fluoro-1H-pyrrolo[2,3-c]pyridine-7-carbonyl)piperazin-1-yl)-7-oxo-[1,2,4]triazolo[1,5-a]pyrimidin-4(7H)-yl)-N-(2-methyl-4-(trifluoromethyl)phenyl)acetamide] |
| > 10000 nM | 50 nM | 3000 nM |  | CCc1c(N2CCN(C(=O)c3cn(C)c(=O)[nH]3)CC2)c(=O)n2nc(C3=CCCC3)nc2n1CC(=O)Nc1ccc(C(F)(F)F)cc1 [Example 52, 2-(2-(cyclopent-1-en-1-yl)-5-ethyl-6-(4-(1-methyl-2-oxo-2,3-dihydro-1H-imidazole-4-carbonyl)piperazin-1-yl)-7-oxo-[1,2,4]triazolo[1,5-a]pyrimidin-4(7H)-yl)-N-(4-(trifluoromethyl)phenyl)acetamide] |
| > 10000 nM | 60 nM | 800 nM |  | CCc1c(N2CCN(C(=O)c3nn(C)c(=O)[nH]3)CC2)c(=O)n2nc(C3=CCC(OC)CC3)nc2n1CC(=O)Nc1ccc(C(F)(F)F)cc1 (stereo not drawn) [Example 53, 2-(5-ethyl-2-(4-methoxycyclohex-1-en-1-yl)-6-(4-(1-methyl-5-oxo-4,5-dihydro-1H-1,2,4-triazole-3-carbonyl)piperazin-1-yl)-7-oxo-[1,2,4]triazolo[1,5-a]pyrimidin-4(7H)-yl)-N-(4-(trifluoromethyl)phenyl)acetamide] |
| > 10000 nM | 100 nM | 1000 nM |  | CCc1c(N2CCN(C(C)=O)CC2)c(=O)n2nc(C3=CCOCC3)nc2n1CC(=O)Nc1ccc(C(F)(F)F)cc1 [Example 54, 2-(6-(4-acetylpiperazin-1-yl)-2-(3,6-dihydro-2H-pyran-4-yl)-5-ethyl-7-oxo-[1,2,4]triazolo[1,5-a]pyrimidin-4(7H)-yl)-N-(4-(trifluoromethyl)phenyl)acetamide] |
| > 10000 nM | 100 nM | 800 nM |  | CCc1c(N2CCN(C(C)=O)CC2)c(=O)n2nc(C3=CCC(OC)CC3)nc2n1CC(=O)Nc1ccc(C(F)(F)F)cc1 (stereo not drawn) [Example 55, 2-(6-(4-acetylpiperazin-1-yl)-5-ethyl-2-(4-methoxycyclohex-1-en-1-yl)-7-oxo-[1,2,4]triazolo[1,5-a]pyrimidin-4(7H)-yl)-N-(4-(trifluoromethyl)phenyl)acetamide] |
| > 10000 nM | 100 nM |  | 1000 nM | CCc1c(N2CCN(C(=O)C3CCOC3)CC2)c(=O)n2nc(C3=CCCCO3)nc2n1CC(=O)Nc1ccc(C(F)(F)F)cc1 (stereo not drawn) [Example 56, 2-(2-(3,4-dihydro-2H-pyran-6-yl)-5-ethyl-7-oxo-6-(4-(tetrahydrofuran-3-carbonyl)piperazin-1-yl)-[1,2,4]triazolo[1,5-a]pyrimidin-4(7H)-yl)-N-(4-(trifluoromethyl)phenyl)acetamide] |
| > 10000 nM | 100 nM | 1000 nM |  | CCc1c(N2CCN(C(C)=O)CC2)c(=O)n2nc(C3=CCCCO3)nc2n1CC(=O)Nc1ccc(C(F)(F)F)cc1 [Example 57, 2-(6-(4-acetylpiperazin-1-yl)-2-(3,4-dihydro-2H-pyran-6-yl)-5-ethyl-7-oxo-[1,2,4]triazolo[1,5-a]pyrimidin-4(7H)-yl)-N-(4-(trifluoromethyl)phenyl)acetamide] |
| > 10000 nM | 100 nM | 2000 nM |  | CCc1c(N2CCN(C(C)=O)CC2)c(=O)n2nc(C3=CCOCC3)nc2n1CC(=O)Nc1ccc(C(F)(F)F)cc1C [Example 58, 2-(6-(4-acetylpiperazin-1-yl)-2-(3,6-dihydro-2H-pyran-4-yl)-5-ethyl-7-oxo-[1,2,4]triazolo[1,5-a]pyrimidin-4(7H)-yl)-N-(2-methyl-4-(trifluoromethyl)phenyl)acetamide] |
| > 10000 nM | 300 nM | 1000 nM |  | CCc1c(N2CCN(C(C)=O)CC2)c(=O)n2nc(C3=CCOCC3)nc2n1CC(=O)Nc1ccc(C(F)(F)F)cc1Cl [Example 59, 2-(6-(4-acetylpiperazin-1-yl)-2-(3,6-dihydro-2H-pyran-4-yl)-5-ethyl-7-oxo-[1,2,4]triazolo[1,5-a]pyrimidin-4(7H)-yl)-N-(2-chloro-4-(trifluoromethyl)phenyl)acetamide] |
| > 10000 nM | 300 nM |  | 3000 nM | CCc1c(N2CCN(C(=O)C3CCOC3)CC2)c(=O)n2nc(C3=CCCCO3)nc2n1CC(=O)Nc1ccc(C(F)(F)F)cc1 (stereo not drawn) [Example 60, 2-(2-(3,4-dihydro-2H-pyran-6-yl)-5-ethyl-7-oxo-6-(4-(tetrahydrofuran-3-carbonyl)piperazin-1-yl)-[1,2,4]triazolo[1,5-a]pyrimidin-4(7H)-yl)-N-(4-(trifluoromethyl)phenyl)acetamide] |
